The values that follow are results of earlier work, collected in patent US8133908B2, “Heteroaryl derivatives of N-{[(1S,4S,6S)-3-(2-pyridinylcarbonyl)-3-azabicyclo[4.1.0]hept-4-yl]methyl}-2-amine” (Glaxo Group Limited, priority 2008, dated 2012).

In one data set the test system is orexin receptor. The conditions noted are these: rats.
In another data set the test system is orexin receptors. As to conditions: rats, central administration at the onset of the normal sleep period.
The test system of a further data set is orexin-A receptor(s). The conditions noted are these: central administration, freely-feeding rats, 4 hour time period.

No end group written: not given here.

Take `Cc1nc2ccc(NC(=O)Nc3ccnc4cccnc34)cc2o1` [SB334867]: in the data set with orexin receptor, the hedonic eating entry is given as “potently reduced” and the high-fat pellet self-administration entry is reported as “attenuated”.

With “orexin-A: ligand for the orexin-1 receptor; an agonist of the orexin receptors (QPLPDCCRQKTCSCRLYELLHGAGNHAAGILTL; ends and bridges not checked; cysteine pairing not given here; UniProt O43612 34-66, looked up)”, in the data set with orexin receptors, the arousal entry is reported as “dose-related increase in arousal”. In addition, the “increase of food intake over control rats receiving vehicle” value in the data set on orexin-A receptor(s) was “approximately four-fold”.
